Measurements taken from publication PMC11466185, “Mechanisms and efficacy of small molecule latency-promoting agents to inhibit HIV reactivation ex vivo” (JCI Insight, 2024).
“Also recorded” adds a separate entry of the source.

Test system: PolyA HIV RNA in the supernatant
Assay: Supernatant viral RNA (polyadenylated HIV RNA, RT-ddPCR) at day 6 after T cell activation
Format: cell-based
Settings: for Viral RNA in supernatant (PolyA HIV RNA), median relative to activated DMSO: day 6 after anti-CD3/CD28 activation, Figure 5; for Polyadenylated HIV RNA in supernatant (Fig 5) / Polyadenylated HIV RNA in supernatant (Fig 5, Fig S6B): day 6
Experimental: PBMCs were cultured in the presence of individual drugs in DMSO or DMSO alone as control, activated (anti-CD3/CD28), and assessed for levels of PolyA HIV RNA in the supernatant at day 6.
Each drug was tested in PBMCs from 6 ART-suppressed study participants (except for triptolide, n = 5). PBMCs were aliquoted into wells at 6 × 10^6 cells/well. After activation, the cells were cultured with antiretrovirals in the presence of individual drugs in DMSO or DMSO alone as control. All conditions were tested in the presence of CD3/28 T cell–activating beads, except for the unactivated DMSO condition. After 6 days, RNA was extracted from the culture supernatant. Polyadenylated HIV RNA in the supernatant was quantified by RT-ddPCR, expressed as copies/mL, and then normalized to the levels of the activated DMSO (% of activated DMSO). Medians and IQR are presented, as well as the individual values per study participant in different colors. Comparisons were performed using Wilcoxon’s signed-rank test.
For quantification of cell-associated HIV transcripts, PBMCs were harvested either after 24 hours or after 6 days. The cell viabilities were measured by trypan blue staining; then the cells were pelleted by centrifuging at 300g for 6 minutes and stored at –80°C. For quantification of virion-associated HIV RNA, cell culture supernatant was collected from 6 × 10^6 PBMCs that were treated and activated for 6 days as described above. Residual cells and cellular debris were subsequently removed from the supernatant by differential centrifugation (300g for 6 minutes, then 20,000g for 10 minutes), and the supernatant was stored at –80°C.
Total cellular DNA and RNA were extracted in parallel using Trireagent (Molecular Research Center) according to the manufacturer’s instructions, except for study participants 2147 and 2461 (Figure 4), for whom DNA and RNA were extracted using the QIAGEN AllPrep DNA/RNA/miRNA Universal Kit with on-column DNase I treatment of the RNA and the manufacturer’s modification to enhance recovery of short transcripts. RNA and DNA concentrations were measured using UV spectrophotometry (NanoDrop One, Thermo Fisher Scientific). Total initiated HIV (TAR) transcripts were quantified by a 3-step polyadenylation RT-ddPCR as described previously ([8], [84]). HIV 5′ elongated (LLTR), midtranscribed (Pol), completed (PolyA), and multiply spliced (TatRev) transcripts were quantified by a 2-step RT-ddPCR as previously described ([8]). The levels of each HIV transcript were normalized to 1 μg of total cellular RNA and expressed as a percentage of the (activated) DMSO control. To quantify virion-associated RNA in supernatant, RNA was extracted from 400 μL supernatant using Trireagent-LS (Molecular Research Center) according to the manufacturer’s instructions. Levels of U3-polyadenylated HIV RNA were measured in the supernatant by RT-ddPCR, normalized to copies/mL, and expressed as a percentage of the activated DMSO. For measuring the HIV infection frequency at day 6, the HIV DNA U3-U5 LTR region was quantified by using ddPCR as described previously ([8]). HIV DNA copies were normalized to cell numbers according to the mass of DNA input per well (calculated from the DNA concentration and input volume) ([85]).

Compound	Viral RNA in supernatant (PolyA HIV RNA), median relative to activated DMSO	Polyadenylated HIV RNA in supernatant (Fig 5) (study participant 150a)	Polyadenylated HIV RNA in supernatant (Fig 5) (study participant 156)	Polyadenylated HIV RNA in supernatant (Fig 5) (study participant 163)	Polyadenylated HIV RNA in supernatant (Fig 5) (study participant 2027)	Polyadenylated HIV RNA in supernatant (Fig 5) (study participant 2147b)	Polyadenylated HIV RNA in supernatant (Fig 5) (study participant 2256)	Polyadenylated HIV RNA in supernatant (Fig 5) (study participant 2747)	Polyadenylated HIV RNA in supernatant (Fig 5, Fig S6B) (study participant 150b)	Polyadenylated HIV RNA in supernatant (Fig 5, Fig S6B) (study participant 1713)	Polyadenylated HIV RNA in supernatant (Fig 5) (study participant 2750)	Polyadenylated HIV RNA in supernatant (Fig 5) (study participant 5557)	Polyadenylated HIV RNA in supernatant (Fig 5) (study participant 2161)
CNc1ccc([N+](=O)[O-])c(Nc2ccc3[nH]ncc3c2)n1 [KRIBB11]	did not inhibit	72.41 % of activated DMSO	18.79 % of activated DMSO	90.15 % of activated DMSO	444.44 % of activated DMSO	47.37 % of activated DMSO	93.55 % of activated DMSO	72.27 % of activated DMSO	–	–	–	–	–
C=CCNC1=C2C[C@@H](C)C[C@H](OC)[C@H](O)[C@@H](C)/C=C(\C)[C@H](OC(N)=O)[C@@H](OC)/C=C\C=C(/C)C(=O)NC(=CC1=O)C2=O [tanespimycin]	–	–	–	–	–	0 % of activated DMSO	2.15 % of activated DMSO	–	0 % of activated DMSO	0 % of activated DMSO	0 % of activated DMSO	0 % of activated DMSO	–
CO[C@H]([C@@H](C)[C@H]1O[C@]1(C)C[C@H](C)/C=C/C=C(\C)[C@H]1O[C@@H](CC(=O)O)CC[C@@H]1C)[C@@H](C)O [herboxidiene]	tended to reduce	–	–	–	240.24 % of activated DMSO	0 % of activated DMSO	1.61 % of activated DMSO	–	67.27 % of activated DMSO	–	–	42.05 % of activated DMSO	4.65 % of activated DMSO
CN1CC[C@H](c2c(O)cc(O)c3c(=O)cc(-c4ccccc4Cl)oc23)[C@H](O)C1 [alvocidib]	–	–	–	–	504.5 % of activated DMSO	0 % of activated DMSO	81.72 % of activated DMSO	–	81.21 % of activated DMSO	–	–	155.63 % of activated DMSO	41.86 % of activated DMSO
COc1ccc(-c2cc(=O)c3c(O)cc(O)c(-c4cc(-c5cc(=O)c6c(O)cc(O)cc6o5)ccc4OC)c3o2)cc1 [isoginkgetin]	–	–	–	–	8.41 % of activated DMSO	63.16 % of activated DMSO	4.84 % of activated DMSO	–	303.03 % of activated DMSO	–	–	39.4 % of activated DMSO	0 % of activated DMSO
pladienolide B	3.8%	17.33 % of activated DMSO	7.61 % of activated DMSO	15.15 % of activated DMSO	63.66 % of activated DMSO	0 % of activated DMSO	–	0 % of activated DMSO	–	–	0 % of activated DMSO	–	0 % of activated DMSO
mithramycin A	tended to reduce; also recorded: inhibited the production of viral RNA in supernatant in 5 out of 6 study participants	–	–	–	–	0 % of activated DMSO	2.15 % of activated DMSO	–	2.42 % of activated DMSO	2.06 % of activated DMSO	–	0 % of activated DMSO	–
CC(C)[C@]12O[C@H]1[C@@H]1O[C@]13[C@]1(O[C@H]1C[C@H]1C4=C(CC[C@@]13C)C(=O)OC4)[C@@H]2O [triptolide]	0.0%	–	–	–	–	0 % of activated DMSO	2.15 % of activated DMSO	–	0 % of activated DMSO	–	0 % of activated DMSO	0 % of activated DMSO	–
CC(=O)N[C@@H]1CCC[C@H](C(=O)Nc2cc(-c3cnn4c3CC(C)(C)C4)c(Cl)cn2)C1 [AZD4573]	1.9%	27.84 % of activated DMSO	3.19 % of activated DMSO	90.51 % of activated DMSO	0 % of activated DMSO	0.7 % of activated DMSO	–	17.73 % of activated DMSO	–	–	0 % of activated DMSO	–	0 % of activated DMSO
CCc1cnn2c(NCc3ccc[n+]([O-])c3)cc(N3CCCC[C@H]3CCO)nc12 [dinaciclib]	–	–	0 % of activated DMSO	133.94 % of activated DMSO	0 % of activated DMSO	0 % of activated DMSO	–	23.64 % of activated DMSO	11.52 % of activated DMSO	–	–	–	4.65 % of activated DMSO
O=c1c(O)c(-c2ccc(O)c(O)c2)oc2cc(O)cc(O)c12 [quercetin]	–	–	–	85.4 % of activated DMSO	20.42 % of activated DMSO	8.6 % of activated DMSO	134.41 % of activated DMSO	9.09 % of activated DMSO	315.15 % of activated DMSO	–	–	–	4.65 % of activated DMSO
N#CC[C@H](C1CCCC1)n1cc(-c2ncnc3[nH]ccc23)cn1 [ruxolitinib]	–	6.55 % of activated DMSO	0 % of activated DMSO	0.53 % of activated DMSO	0 % of activated DMSO	0 % of activated DMSO	–	0 % of activated DMSO	–	–	0 % of activated DMSO	–	5.81 % of activated DMSO
